# Assay results taken from patent publication US10159640B2, “Prebiotic oral care compositions containing amino acids” (COLGATE-PALMOLIVE COMPANY, priority 2013, dated 2018).
# What was measured:
# Assay in all cases: Extent of growth, growth curves in BHI
# Assay type in all cases: cell-based
# Details in all cases: control = 1
# [1] = test system: Streptococcus sanguinis
# Description: (§1) The extent of growth of the tested bacteria in response to selected compounds (Met-Pro, Phe-Glu) was investigated by setting up growth curves in a nutritionally rich medium (brain heart infusion broth (BHI), Oxoid), over 48 hours. Late exponential growth phase liquid cultures were prepared by transferring the respective bacterium from blood agar plates to BHI and overnight incubation at 37° C. in an anaerobic atmosphere for A. viscosus, V. parvula, F. nucleatum, P. gingivalis, P. intermedia, T. forsythia, A. naeslundii, and C. sputigena, and in a 5% CO2 environment for S. salivarius, S. sanguinis, S. mitis, A. actinomycetemcomitans, S. mutans, S. sobrinus and S. gordonii. Overnight cultures were transferred to BHI and adjusted to a concentration of 1×10^7 CFU/ml (colony forming units per ml) by measuring the optical density at 600 nm (OD600) (BioRad SmartSpec 3000). For each strain, 200 μl of the bacterial suspension was added to a 96-well plate containing 20 μl of the respective di-peptides. Final concentrations of the di-peptides were set to 5, 10, 20 and 25 μmol/ml. […] Plates were incubated as previously described.
# (§2) For each combination of bacterium/dipeptide, and for each of their respective controls (i.e. the particular bacterium in the nutritionally rich medium with no dipeptide), the optical density was measured at 630 nm (OD630) at 0 h, 24 h and 48 h (Thermo Scientific Multiskan Ascent). Additionally, the OD630 for combinations of bacterium/dipeptide grown in a 5% CO2 environment were also measured every hour between 0 h and 9 h.
# (§3) The experiment was carried out on three different days (thus providing 3 biological replicas) and on each day the experiment was carried out in quadruple (thus providing 4 technical replicas) for each combination of bacterium with dipeptide and for each control. For each day and for each combination, the average (mean) of the values obtained (as detailed above) for the four technical replicas was calculated to provide a single value for each combination on each day. The values shown in Tables 5 to 6, below, are the average (mean) of the three single values obtained for each combination of bacterium with dipeptide.
# [2] = test system: Veillonella parvula
# Description: as §1, §2, §3
# [3] = test system: Streptococcus mitis
# Description: as §1, §2, §3
# [4] = test system: Prevotella intermedia
# Description: as §1, §2, §3
# [5] = test system: Capnocytophaga sputigena
# Description: as §1, §2, §3
# [6] = test system: Porphyromonas gingivalis
# Description: as §1, §2, §3
# [7] = test system: Actinomyces naeslundii
# Description: as §1, §2, §3
# [8] = test system: Aggregatibacter actinomycetemcomitans
# Description: as §1, §2, §3
# [9] = test system: Streptococcus gordonii
# Description: as §1, §2, §3
# [10] = test system: Streptococcus mutans
# Description: as §1, §2, §3
# [11] = test system: Tannerella forsythia
# Description: as §1, §2, §3
# [12] = test system: Streptococcus sobrinus
# Description: as §1, §2, §3
# [13] = test system: Streptococcus salivarius
# Description: as §1, §2, §3
# [14] = test system: Fusobacterium nucleatum
# Description: as §1, §2, §3
# [15] = test system: Actinomyces viscosus
# Description: as §1, §2, §3
substance,measurement,setting,value
Met-Pro,extent of growth: maximal OD630 over 48 hr divided by maximal OD of control,[1]; 5 μmol/ml,0.9059
same,extent of growth: maximal OD630 over 48 hr divided by maximal OD of control,[1]; 10 μmol/ml,0.9070
same,extent of growth: maximal OD630 over 48 hr divided by maximal OD of control,[1]; 20 μmol/ml,0.6852
same,extent of growth: maximal OD630 over 48 hr divided by maximal OD of control,[1]; 25 μmol/ml,0.5011
same,extent of growth: maximal OD630 over 48 hr divided by maximal OD of control,[2]; 5 μmol/ml,0.9980
same,extent of growth: maximal OD630 over 48 hr divided by maximal OD of control,[2]; 10 μmol/ml,0.9808
same,extent of growth: maximal OD630 over 48 hr divided by maximal OD of control,[2]; 20 μmol/ml,0.9516
same,extent of growth: maximal OD630 over 48 hr divided by maximal OD of control,[2]; 25 μmol/ml,0.9671
same,extent of growth: maximal OD630 over 48 hr divided by maximal OD of control,[3]; 5 μmol/ml,0.9134
same,extent of growth: maximal OD630 over 48 hr divided by maximal OD of control,[3]; 10 μmol/ml,1.2332
same,extent of growth: maximal OD630 over 48 hr divided by maximal OD of control,[3]; 20 μmol/ml,1.8922
same,extent of growth: maximal OD630 over 48 hr divided by maximal OD of control,[3]; 25 μmol/ml,1.7501
same,extent of growth: maximal OD630 over 48 hr divided by maximal OD of control,[4]; 5 μmol/ml,0.9177
same,extent of growth: maximal OD630 over 48 hr divided by maximal OD of control,[4]; 10 μmol/ml,0.9742
same,extent of growth: maximal OD630 over 48 hr divided by maximal OD of control,[4]; 20 μmol/ml,0.3193
same,extent of growth: maximal OD630 over 48 hr divided by maximal OD of control,[4]; 25 μmol/ml,0.2336
same,extent of growth: maximal OD630 over 48 hr divided by maximal OD of control,[5]; 5 μmol/ml,0.9618
same,extent of growth: maximal OD630 over 48 hr divided by maximal OD of control,[5]; 10 μmol/ml,3.5579
same,extent of growth: maximal OD630 over 48 hr divided by maximal OD of control,[5]; 20 μmol/ml,2.9796
same,extent of growth: maximal OD630 over 48 hr divided by maximal OD of control,[5]; 25 μmol/ml,0.9701
same,extent of growth: maximal OD630 over 48 hr divided by maximal OD of control,[6]; 5 μmol/ml,0.8702
same,extent of growth: maximal OD630 over 48 hr divided by maximal OD of control,[6]; 10 μmol/ml,0.8266
same,extent of growth: maximal OD630 over 48 hr divided by maximal OD of control,[6]; 20 μmol/ml,0.7021
same,extent of growth: maximal OD630 over 48 hr divided by maximal OD of control,[6]; 25 μmol/ml,0.4276
same,extent of growth: maximal OD630 over 48 hr divided by maximal OD of control,[7]; 5 μmol/ml,0.8420
same,extent of growth: maximal OD630 over 48 hr divided by maximal OD of control,[7]; 10 μmol/ml,0.8131
same,extent of growth: maximal OD630 over 48 hr divided by maximal OD of control,[7]; 20 μmol/ml,0.5466
same,extent of growth: maximal OD630 over 48 hr divided by maximal OD of control,[7]; 25 μmol/ml,0.3360
same,extent of growth: maximal OD630 over 48 hr divided by maximal OD of control,[8]; 5 μmol/ml,0.7454
same,extent of growth: maximal OD630 over 48 hr divided by maximal OD of control,[8]; 10 μmol/ml,0.6321
same,extent of growth: maximal OD630 over 48 hr divided by maximal OD of control,[8]; 20 μmol/ml,0.3282
same,extent of growth: maximal OD630 over 48 hr divided by maximal OD of control,[8]; 25 μmol/ml,0.2297
same,extent of growth: maximal OD630 over 48 hr divided by maximal OD of control,[9]; 5 μmol/ml,0.9757
same,extent of growth: maximal OD630 over 48 hr divided by maximal OD of control,[9]; 10 μmol/ml,0.9528
same,extent of growth: maximal OD630 over 48 hr divided by maximal OD of control,[9]; 20 μmol/ml,0.7735
same,extent of growth: maximal OD630 over 48 hr divided by maximal OD of control,[9]; 25 μmol/ml,0.6853
same,extent of growth: maximal OD630 over 48 hr divided by maximal OD of control,[10]; 5 μmol/ml,0.9473
same,extent of growth: maximal OD630 over 48 hr divided by maximal OD of control,[10]; 10 μmol/ml,0.9083
same,extent of growth: maximal OD630 over 48 hr divided by maximal OD of control,[10]; 20 μmol/ml,0.7929
same,extent of growth: maximal OD630 over 48 hr divided by maximal OD of control,[10]; 25 μmol/ml,0.5618
same,extent of growth: maximal OD630 over 48 hr divided by maximal OD of control,[11]; 5 μmol/ml,0.9244
same,extent of growth: maximal OD630 over 48 hr divided by maximal OD of control,[11]; 10 μmol/ml,0.9743
same,extent of growth: maximal OD630 over 48 hr divided by maximal OD of control,[11]; 20 μmol/ml,0.7533
same,extent of growth: maximal OD630 over 48 hr divided by maximal OD of control,[11]; 25 μmol/ml,0.7018
same,extent of growth: maximal OD630 over 48 hr divided by maximal OD of control,[12]; 5 μmol/ml,0.9294
same,extent of growth: maximal OD630 over 48 hr divided by maximal OD of control,[12]; 10 μmol/ml,1.0301
same,extent of growth: maximal OD630 over 48 hr divided by maximal OD of control,[12]; 20 μmol/ml,1.0167
same,extent of growth: maximal OD630 over 48 hr divided by maximal OD of control,[12]; 25 μmol/ml,0.8547
same,extent of growth: maximal OD630 over 48 hr divided by maximal OD of control,[13]; 5 μmol/ml,0.9729
same,extent of growth: maximal OD630 over 48 hr divided by maximal OD of control,[13]; 10 μmol/ml,1.0153
same,extent of growth: maximal OD630 over 48 hr divided by maximal OD of control,[13]; 20 μmol/ml,0.7572
same,extent of growth: maximal OD630 over 48 hr divided by maximal OD of control,[13]; 25 μmol/ml,0.5262
same,extent of growth: maximal OD630 over 48 hr divided by maximal OD of control,[14]; 5 μmol/ml,0.8422
same,extent of growth: maximal OD630 over 48 hr divided by maximal OD of control,[14]; 10 μmol/ml,0.8667
same,extent of growth: maximal OD630 over 48 hr divided by maximal OD of control,[14]; 20 μmol/ml,0.7782
same,extent of growth: maximal OD630 over 48 hr divided by maximal OD of control,[14]; 25 μmol/ml,0.7273
same,extent of growth: maximal OD630 over 48 hr divided by maximal OD of control,[15]; 5 μmol/ml,0.4873
same,extent of growth: maximal OD630 over 48 hr divided by maximal OD of control,[15]; 10 μmol/ml,0.4102
same,extent of growth: maximal OD630 over 48 hr divided by maximal OD of control,[15]; 20 μmol/ml,0.3154
same,extent of growth: maximal OD630 over 48 hr divided by maximal OD of control,[15]; 25 μmol/ml,0.2498
